GI50 data for 16 compounds are collected here from patent US20240398805A1, “QUINAZOLINE DERIVED COMPOUNDS AS EGFR INHIBITORS AND THEIR USES THEREOF” (ACCUTAR BIOTECHNOLOGY INC., priority 2021, published 2024).

Holding throughout (type): cell-based
One assay has as its system A431 cells. The experiment in a line: Cell growth inhibition (CellTiter-Glo, 3 days) in A431. Particulars: Homo sapiens, A-431, 72 h, 3 days after administration. In outline: (§1)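 HCC827 cells in RPMI/10% FBS and A431 cells in DMEM/10% FBS were seeded at 5000 cells/well and left overnight. Compound was then added over a concentration range for 3 days of incubation, and viability was read by CellTiter-Glo luminescence.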
A general note: Cellular ATP, detected with luciferase, serves as a proxy for viable cell number.

The subject of a further assay is HCC827 cells. The experiment in a line: Cell growth inhibition (CellTiter-Glo, 3 days) in HCC827. Particulars: Homo sapiens, 72 h, 3 days after administration. In outline:
as §1

Assay [1] concerns HCC827-ASV cells (human EGFR exon 20 insertion mutant A769_D770insASV). The experiment in a line: Cell growth inhibition (CellTiter-Glo, 3 days) in HCC827-ASV. The note with it: 72 h, 3 days after administration. In a few lines: (§2)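 Growth inhibition used a CellTiter-Glo luminescence read-out after 3 days of compound exposure at various concentrations. Cells were plated the day before at 5000/well in RPMI plus 10% FBS. The lines are HCC827 transduced by lentivirus with codon-optimized EGFR ASV or ERBB2 YVMA exon 20 insertions.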

Assay [2] relates to HCC827-YVMA cells (human ERBB2 exon20 insertion mutant A775_G776ins YVMA). The experiment in a line: Cell growth inhibition (CellTiter-Glo, 3 days) in HCC827-YVMA. Particulars: 72 h, 3 days after administration. In a few lines: as §2
The test system of assay [3] is HCC827-SVD cells (human EGFR exon 20 insertion mutant D770_N771 insSVD). The experiment in a line: Cell growth inhibition (CellTiter-Glo, 3 days) in HCC827-SVD. Particulars: 72 h, 3 days after administration. In a few lines: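 HCC827 cells carrying lentiviral codon-optimized EGFR D770_N771 insSVD, with endogenous EGFR knocked out by CRISPR (single clone), seeded at 5000 cells/well in RPMI with 10% FBS. Viability read by CellTiter-Glo luminescence.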

What is called GI50 is the concentration that inhibits growth by half. On to `C=CC(=O)N1CCC(Nc2cc3c(Nc4ccc(OCc5ccccn5)c(Cl)c4)ncnc3cc2OCCN2CCOCC2)CC1` [Example 95, 1-(4-((4-((3-chloro-4-(pyridin-2-ylmethoxy)phenyl)amino)-7-(2-morpholinoethoxy)quinazolin-6-yl)amino)piperidin-1-yl)prop-2-en-1-one], for which the concentration for 50% growth inhibition (GI50) was 100 to 300 nM in the assay on A431 cells; less than 30 nM with HCC827 cells; less than 30 nM in assay [1]; less than 30 nM in assay [2]; less than 30 nM in assay [3].
Turning to `C=CC(=O)N1CCC(Nc2cc3c(Nc4ccc(Oc5ccnc(N6C[C@@H]7C[C@H]6CO7)c5)cc4F)ncnc3cc2OC)CC1` [Example 131, 1-(4-((4-((4-((2-((1S,4S)-2-oxa-5-azabicyclo[2.2.1]heptan-5-yl)pyridin-4-yl)oxy)-2-fluorophenyl)amino)-7-methoxyquinazolin-6-yl)amino)piperidin-1-yl)prop-2-en-1-one], the GI50 in the assay with A431 cells was not below 1000 nM; in the assay on HCC827 cells it was 600 to 1000 nM; in assay [1], 30 to 60 nM; in assay [2] it was 60 to 100 nM; in assay [3] it was 60 to 100 nM.
On to `C=CC(=O)N1CCC(Nc2cc3c(Nc4ccc(Oc5ccn(-c6cnc(C)c(F)c6)n5)c(F)c4)ncnc3cc2OC)CC1` [Example 86, 1-(4-((4-((3-fluoro-4-((1-(5-fluoro-6-methylpyridin-3-yl)-1H-pyrazol-3-yl)oxy)phenyl)amino)-7-methoxyquinazolin-6-yl)amino)piperidin-1-yl)prop-2-en-1-one], for which the concentration for 50% growth inhibition (GI50) was 60 to 100 nM in the assay on A431 cells; 30 to 60 nM in the assay on HCC827 cells; 60 to 100 nM in assay [1]; 30 to 60 nM in assay [2]; 30 to 60 nM in assay [3].
With `C=CC(=O)N1CCC(Nc2cc3c(Nc4ccc(Oc5ccnc(C6=CCN(C)CC6)c5)cc4F)ncnc3cc2OC)CC1` [Example 213, 1-(4-((4-((2-fluoro-4-((1′-methyl-1′,2′,3′,6′-tetrahydro-[2,4′-bipyridin]-4-yl)oxy)phenyl)amino)-7-methoxyquinazolin-6-yl)amino)piperidin-1-yl)prop-2-en-1-one], the concentration for 50% growth inhibition (GI50) in the assay with A431 cells was not below 1000 nM; with HCC827 cells it was 300 to 600 nM; in assay [1] it was 100 to 300 nM; in assay [2], 300 to 600 nM; in assay [3], 300 to 600 nM.
Consider `C=CC(=O)N1CCC(Nc2cc3c(Nc4ccc(Oc5ccnc(N6CC7(COC7)C6)c5)cc4F)ncnc3cc2OC)CC1` [Example 118, 1-(4-((4-((4-((2-(2-oxa-6-azaspiro[3.3]heptan-6-yl)pyridin-4-yl)oxy)-2-fluorophenyl)amino)-7-methoxyquinazolin-6-yl)amino)piperidin-1-yl)prop-2-en-1-one], for which the GI50 with A431 cells was not below 1000 nM; in the assay on HCC827 cells, 300 to 600 nM; in assay [1], 30 to 60 nM; in assay [2] it was 30 to 60 nM; in assay [3], 30 to 60 nM.
Consider `C=CC(=O)N1CCC(Nc2cc3c(Nc4ccc(Oc5ccn(-c6ccc(C)nc6F)n5)cc4F)ncnc3cc2OC)CC1` [Example 89, 1-(4-((4-((2-fluoro-4-((1-(2-fluoro-6-methylpyridin-3-yl)-1H-pyrazol-3-yl)oxy)phenyl)amino)-7-methoxyquinazolin-6-yl)amino)piperidin-1-yl)prop-2-en-1-one], for which the GI50 in the assay with A431 cells is 600 to 1000 nM; in the assay with HCC827 cells it was 30 to 60 nM; in assay [1], less than 30 nM; in assay [2], less than 30 nM; in assay [3], less than 30 nM.
For the compound `C=CC(=O)N1CCC(Nc2cc3c(Nc4ccc(Oc5ccnc(N6CCC(O)C(C)(C)C6)c5)cc4F)ncnc3cc2OC)CC1` (centres unmarked) [Example 171, 1-(4-((4-((2-fluoro-4-((2-(4-hydroxy-3,3-dimethylpiperidin-1-yl)pyridin-4-yl)oxy)phenyl)amino)-7-methoxyquinazolin-6-yl)amino)piperidin-1-yl)prop-2-en-1-one], the GI50 in the assay on A431 cells is 600 to 1000 nM; with HCC827 cells, 300 to 600 nM; in assay [1], 30 to 60 nM; in assay [2], 30 to 60 nM; in assay [3], 30 to 60 nM.
As to `C=CC(=O)N1CCC(Nc2cc3c(Nc4ccc(Oc5ccnc(N6CCN(C)[C@H](C)C6)c5)cc4F)ncnc3cc2OC)CC1` [Example 180, (R)-1-(4-((4-((4-((2-(3,4-dimethylpiperazin-1-yl)pyridin-4-yl)oxy)-2-fluorophenyl)amino)-7-methoxyquinazolin-6-yl)amino)piperidin-1-yl)prop-2-en-1-one], the GI50 in the assay on A431 cells was not below 1000 nM; in the assay with HCC827 cells, not below 1000 nM; in assay [1], 30 to 60 nM; in assay [2] it was 30 to 60 nM; in assay [3], 30 to 60 nM.
Consider `C=CC(=O)N1CCC(Nc2cc3c(Nc4ccc(Oc5ccnc(N6C[C@H]7CCCC[C@H]7C6)c5)cc4F)ncnc3cc2OC)CC1` [Example 241, 1-(4-((4-((2-fluoro-4-((2-((3aR,7aS)-octahydro-2H-isoindol-2-yl)pyridin-4-yl)oxy)phenyl)amino)-7-methoxyquinazolin-6-yl)amino)piperidin-1-yl)prop-2-en-1-one], for which the GI50 in the assay with A431 cells is 600 to 1000 nM; in the assay on HCC827 cells it was less than 30 nM; in assay [1] it was 60 to 100 nM; in assay [2] it was 60 to 100 nM; in assay [3] it was 30 to 60 nM.
In the case of `C=CC(=O)N1CCC(Nc2cc3c(Nc4ccc(Oc5ccn(-c6cnc(C)c(F)c6)n5)cc4F)ncnc3cc2OCC)CC1` [Compound 13, 1-(4-((7-ethoxy-4-((2-fluoro-4-((1-(5-fluoro-6-methylpyridin-3-yl)-1H-pyrazol-3-yl)oxy)phenyl)amino)quinazolin-6-yl)amino)piperidin-1-yl)prop-2-en-1-one], the concentration for 50% growth inhibition (GI50) with A431 cells was 300 to 600 nM; with HCC827 cells it was less than 30 nM; in assay [1], less than 30 nM; in assay [2], less than 30 nM; in assay [3] it was less than 30 nM.
Regarding `C=CC(=O)N1CCC(Nc2cc3c(Nc4ccc(Oc5ccn(-c6ccc(C)nc6)n5)cc4F)ncnc3cc2OCC)CC1` [Example 18, 1-(4-((7-ethoxy-4-((2-fluoro-4-((1-(6-methylpyridin-3-yl)-1H-pyrazol-3-yl)oxy)phenyl)amino)quinazolin-6-yl)amino)piperidin-1-yl)prop-2-en-1-one], the GI50 in the assay on A431 cells was 100 to 300 nM; in the assay on HCC827 cells, less than 30 nM; in assay [1], less than 30 nM; in assay [2], less than 30 nM; in assay [3], less than 30 nM.
`C=CC(=O)N1CCC(Nc2cc3c(Nc4ccc(Oc5ccnc(N6CCC(C)(C#N)CC6)c5)cc4F)ncnc3cc2OC)CC1` [Example 200, 1-(4-(4-((6-((1-acryloylpiperidin-4-yl)amino)-7-methoxyquinazolin-4-yl)amino)-3-fluorophenoxy)pyridin-2-yl)-4-methylpiperidine-4-carbonitrile]: the GI50 with A431 cells is not below 1000 nM; in the assay with HCC827 cells, 60 to 100 nM; in assay [1], 30 to 60 nM; in assay [2], 60 to 100 nM; in assay [3] it was 30 to 60 nM.
With `C=CC(=O)N1CCC(Nc2cc3c(Nc4ccc(Oc5ccnc(N(C)CCOC)c5)cc4F)ncnc3cc2OC)CC1` [Example 116, 1-(4-((4-((2-fluoro-4-((2-((2-methoxyethyl)(methyl)amino)pyridin-4-yl)oxy)phenyl)amino)-7-methoxyquinazolin-6-yl)amino)piperidin-1-yl)prop-2-en-1-one], the GI50 with A431 cells was 600 to 1000 nM; with HCC827 cells, 300 to 600 nM; in assay [1], 100 to 300 nM; in assay [2], 60 to 100 nM; in assay [3], 100 to 300 nM.
Consider `C=C(F)C(=O)N1CCC(Nc2cc3c(Nc4ccc(Oc5ccn(-c6ccc(C)nc6)n5)cc4F)ncnc3cc2OC)CC1` [Example 25, 2-fluoro-1-(4-((4-((2-fluoro-4-((1-(6-methylpyridin-3-yl)-1H-pyrazol-3-yl)oxy)phenyl)amino)-7-methoxyquinazolin-6-yl)amino)piperidin-1-yl)prop-2-en-1-one], for which the 50% growth inhibitory concentration (GI50) (in the assay with A431 cells; in the assay with HCC827 cells; in assay [1]; in assay [2]; in assay [3]) was not below 1000 nM throughout.
Turning to `C=CC(=O)N1CCC(Nc2cc3c(Nc4ccc(Oc5ccnn5-c5cnc(OC)c(F)c5)cc4F)ncnc3cc2OC)CC1` [Example 109, 1-(4-((4-((2-fluoro-4-((1-(5-fluoro-6-methoxypyridin-3-yl)-1H-pyrazol-5-yl)oxy)phenyl)amino)-7-methoxyquinazolin-6-yl)amino)piperidin-1-yl)prop-2-en-1-one], the GI50 with A431 cells was not below 1000 nM; with HCC827 cells, less than 30 nM; in assay [1] it was not below 1000 nM; in assay [2], not below 1000 nM; in assay [3], not below 1000 nM.
As to `C=CC(=O)N1CCC(Nc2cc3c(Nc4ccc(Oc5ccnc(N6CC(C)(C#N)C6)c5)cc4F)ncnc3cc2OC)CC1` [Example 205, 1-(4-(4-((6-((1-acryloylpiperidin-4-yl)amino)-7-methoxyquinazolin-4-yl)amino)-3-fluorophenoxy)pyridin-2-yl)-3-methylazetidine-3-carbonitrile], the GI50 was 100 to 300 nM in the assay on A431 cells; less than 30 nM with HCC827 cells; less than 30 nM in assay [1]; less than 30 nM in assay [2]; less than 30 nM in assay [3].
